Structures can show the parent of a compound that is named as a salt. Where two headings read alike, the source gives them in different places.
Molecular target: T1, GLP-1 Receptor (GLP1R) (Homo sapiens, UniProt P43220)
T1 construct: host or cells: HEK293/GLP1R/CRE-LUC
Assay: GLP-1R agonist cAMP stimulation assay (Method 3)
Assay type: cell-based
Settings: HEK293/GLP1R/CRE-LUC cells (HDB), Method 3, 30 min incubation
Method: Method 3: Activation of GLP-1 receptor is known to stimulate cyclic AMP (cAMP) production in cells which indicates primary coupling to the Gαs subunit of the G protein heterotrimeric complex.
To optimize functional activity directed toward Gαs coupling, a HEK293/CRE-Luc cell line developed by HDB stably expressing the GLP-1 Receptor was used, 200× concentration of compound working solutions were prepared (Agilent Technologies Bravo) with 1/2 log serial dilution in 384-well Echo LDV plate (Labcyte, Cat #LP-0200). 50 nL/well 200× concentration of compound working solutions were moved to 384-well white low volume plate (Greiner, Cat #784075) using Labcyte ECHO550. 1×10^5 cells/mL HEK293/GLP1R/CRE-LUC(HD Biosciences) cell suspensions prepared with assay buffer [DPBS containing 0.5 mM IBMX (Sigma, Cat #15879) and 0.1% BSA (GENVIEW, Cat #FA016-100 g)], 10 μL cell suspensions were added to each well of previous generated assay plate which already contains 50 nL compound at 200× concentration using ThermoFisher Multidrop Combi (1000 cells/well). Seal the plate and incubate at 37° C. with 5% CO2 for 30 min.
After incubation the cAMP assay signal was generated using cAMP dynamic 2 Kit (Cisbio). 5 μL cAMP-d2 working solution was added to each well, followed with 5 μL Anti-cAMP antibody-cryptate working solution added to each well using ThermoFisher Multidrop Combi. Incubate at room temperature for 1 hour protected from light. Read the fluorescence at 665 nm and 615 nm with Reader PerkinElmer EnVision.

[1] = read-out: GLP1R cAMP Stimulation DR: EC50 (nM) [Species: Human, Assay Cell Line: HDB]
[2] = read-out: GLP1R cAMP Stimulation DR: pEC50 (M) [Species: Human, Assay Cell Line: HDB] (converted)

T1 sequence (P43220 24-463): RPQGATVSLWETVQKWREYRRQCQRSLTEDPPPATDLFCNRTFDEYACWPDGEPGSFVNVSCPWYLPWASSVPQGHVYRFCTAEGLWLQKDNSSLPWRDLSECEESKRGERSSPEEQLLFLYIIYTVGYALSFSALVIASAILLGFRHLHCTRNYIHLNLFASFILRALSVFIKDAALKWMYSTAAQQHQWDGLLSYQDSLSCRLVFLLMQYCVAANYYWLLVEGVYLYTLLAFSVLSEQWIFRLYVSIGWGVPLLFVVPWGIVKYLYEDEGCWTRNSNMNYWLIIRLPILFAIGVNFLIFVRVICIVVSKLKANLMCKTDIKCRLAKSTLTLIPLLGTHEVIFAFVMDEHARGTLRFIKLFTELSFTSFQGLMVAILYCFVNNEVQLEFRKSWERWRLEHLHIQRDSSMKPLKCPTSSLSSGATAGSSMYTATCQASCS

Compound | EC50 [1] | EC50 [2]
CCP(=O)(CC)c1ccc(-n2ccn(-c3c4c(nn3-c3cc(C)c(F)c(C)c3)CCN(C(=O)c3cc5cc(C6CCOCC6)ccc5n3[C@@]3(c5noc(=O)[nH]5)C[C@@H]3C)[C@H]4C)c2=O)cc1NS(C)(=O)=O [Compound 116a] | 0.2 to 0.5 nM | 0.1 to 1 nM
CCP(=O)(CC)c1ccc(-n2ccn(-c3c4c(nn3-c3cc(C)c(F)c(C)c3)CCN(C(=O)c3cc5cc(C6CCOCC6)ccc5n3[C@@]3(c5noc(=O)[nH]5)C[C@@H]3C)[C@H]4C)c2=O)cc1N(C)C [Compound 117a, 3-((1S,2S)-1-(2-((S)-3-(3-(4-(diethylphosphoryl)-3-(dimethylamino)phenyl)-2-oxo-2,3-dihydro-1H-imidazol-1-yl)-2-(4-fluoro-3,5-dimethylphenyl)-4-methyl-4,5,6,7-tetrahydro-2H-pyrazolo[4,3-c]pyridine-5-carbonyl)-5-(tetrahydro-2H-pyran-4-yl)-1H-indol-1-yl)-2-methylcyclopropyl)-1,2,4-oxadiazol-5(4H)-one HCl salt] | 0.2 to 0.5 nM | 0.1 to 1 nM
CCP(=O)(CC)c1ccc(-n2ccn(-c3c4c(nn3-c3cc(C)c(F)c(C)c3)CCN(C(=O)c3cc5cc(C6CCOCC6)ccc5n3[C@@]3(c5noc(=O)[nH]5)C[C@@H]3C)[C@H]4C)c2=O)cc1OC [Compound 118a, 3-((1S,2S)-1-(2-((S)-3-(3-(4-(diethylphosphoryl)-3-methoxyphenyl)-2-oxo-2,3-dihydro-1H-imidazol-1-yl)-2-(4-fluoro-3,5-dimethylphenyl)-4-methyl-4,5,6,7-tetrahydro-2H-pyrazolo[4,3-c]pyridine-5-carbonyl)-5-(tetrahydro-2H-pyran-4-yl)-1H-indol-1-yl)-2-methylcyclopropyl)-1,2,4-oxadiazol-5(4H)-one] | < 0.1 nM | ≤ 0.1 nM
CCP(=O)(CC)c1ccc(-n2ccn(-c3c4c(nn3-c3cc(C)c(F)c(C)c3)CCN(C(=O)c3cc5cc(C6CCOCC6)ccc5n3[C@@]3(c5noc(=O)[nH]5)C[C@@H]3C)[C@H]4C)c2=O)cc1NC [Compound 121a, 3-((1S,2S)-1-(2-((S)-3-(3-(4-(diethylphosphoryl)-3-(methylamino)phenyl)-2-oxo-2,3-dihydro-1H-imidazol-1-yl)-2-(4-fluoro-3,5-dimethylphenyl)-4-methyl-4,5,6,7-tetrahydro-2H-pyrazolo[4,3-c]pyridine-5-carbonyl)-5-(tetrahydro-2H-pyran-4-yl)-1H-indol-1-yl)-2-methylcyclopropyl)-1,2,4-oxadiazol-5(4H)-one] | < 0.1 nM | ≤ 0.1 nM
Cc1cc(-n2ccn(-c3c4c(nn3-c3cc(C)c(F)c(C)c3)CCN(C(=O)c3cc5cc(C6CCOCC6)ccc5n3[C@@]3(c5noc(=O)[nH]5)C[C@@H]3C)[C@H]4C)c2=O)ccc1P(C)(C)=O [Compound 124a, 3-((1S,2S)-1-(2-((S)-3-(3-(4-(dimethylphosphoryl)-3-methylphenyl)-2-oxo-2,3-dihydro-1H-imidazol-1-yl)-2-(4-fluoro-3,5-dimethylphenyl)-4-methyl-4,5,6,7-tetrahydro-2H-pyrazolo[4,3-c]pyridine-5-carbonyl)-5-(tetrahydro-2H-pyran-4-yl)-1H-indol-1-yl)-2-methylcyclopropyl)-1,2,4-oxadiazol-5(4H)-one] | < 0.1 nM | ≤ 0.1 nM

Further lines, results first:

EC50 [1] | EC50 [2] | Compound
0.2 to 0.5 nM | 0.1 to 1 nM | CCP(=O)(CC)c1ccc(-n2ccn(-c3c4c(nn3-c3cc(C)c(F)c(C)c3)CCN(C(=O)c3cc5cc(C6CCOCC6)ccc5n3[C@@]3(c5noc(=O)[nH]5)C[C@@H]3C)[C@H]4C)c2=O)cc1NC(C)C [Compound 119a, 3-((1S,2S)-1-(2-((S)-3-(3-(4-(diethylphosphoryl)-3-(isopropylamino)phenyl)-2-oxo-2,3-dihydro-1H-imidazol-1-yl)-2-(4-fluoro-3,5-dimethylphenyl)-4-methyl-4,5,6,7-tetrahydro-2H-pyrazolo[4,3-c]pyridine-5-carbonyl)-5-(tetrahydro-2H-pyran-4-yl)-1H-indol-1-yl)-2-methylcyclopropyl)-1,2,4-oxadiazol-5(4H)-one]
< 0.1 nM | ≤ 0.1 nM | CCNc1cc(-n2ccn(-c3c4c(nn3-c3cc(C)c(F)c(C)c3)CCN(C(=O)c3cc5cc(C6CCOCC6)ccc5n3[C@@]3(c5noc(=O)[nH]5)C[C@@H]3C)[C@H]4C)c2=O)ccc1P(=O)(CC)CC [Compound 120a, 3-((1S,2S)-1-(2-((S)-3-(3-(4-(diethylphosphoryl)-3-(ethylamino)phenyl)-2-oxo-2,3-dihydro-1H-imidazol-1-yl)-2-(4-fluoro-3,5-dimethylphenyl)-4-methyl-4,5,6,7-tetrahydro-2H-pyrazolo[4,3-c]pyridine-5-carbonyl)-5-(tetrahydro-2H-pyran-4-yl)-1H-indol-1-yl)-2-methylcyclopropyl)-1,2,4-oxadiazol-5(4H)-one]
< 0.1 nM | ≤ 0.1 nM | Cc1cc(-n2nc3c(c2-n2ccn(-c4ccc(P(C)(C)=O)cc4F)c2=O)[C@H](C)N(C(=O)c2cc4cc(C5CCOCC5)ccc4n2[C@@]2(c4noc(=O)[nH]4)C[C@@H]2C)CC3)cc(C)c1F [Compound 122a, 3-((1S,2S)-1-(2-((S)-3-(3-(4-(dimethylphosphoryl)-2-fluorophenyl)-2-oxo-2,3-dihydro-1H-imidazol-1-yl)-2-(4-fluoro-3,5-dimethylphenyl)-4-methyl-4,5,6,7-tetrahydro-2H-pyrazolo[4,3-c]pyridine-5-carbonyl)-5-(tetrahydro-2H-pyran-4-yl)-1H-indol-1-yl)-2-methylcyclopropyl)-1,2,4-oxadiazol-5(4H)-one]
0.2 to 0.5 nM | 0.1 to 1 nM | Cc1cc(-n2nc3c(c2-n2ccn(-c4ccc(P(C)(C)=O)c(OC(F)(F)F)c4)c2=O)[C@H](C)N(C(=O)c2cc4cc(C5CCOCC5)ccc4n2[C@@]2(c4noc(=O)[nH]4)C[C@@H]2C)CC3)cc(C)c1F [Compound 123a, 3-((1S,2S)-1-(2-((S)-3-(3-(4-(dimethylphosphoryl)-3-(trifluoromethoxy)phenyl)-2-oxo-2,3-dihydro-1H-imidazol-1-yl)-2-(4-fluoro-3,5-dimethylphenyl)-4-methyl-4,5,6,7-tetrahydro-2H-pyrazolo[4,3-c]pyridine-5-carbonyl)-5-(tetrahydro-2H-pyran-4-yl)-1H-indol-1-yl)-2-methylcyclopropyl)-1,2,4-oxadiazol-5(4H)-one]
0.2 to 0.5 nM | 0.1 to 1 nM | Cc1cc(-n2nc3c(c2-n2ccn(-c4ccc(P(C)(C)=O)c(N5CCOCC5)c4)c2=O)[C@H](C)N(C(=O)c2cc4cc(C5CCOCC5)ccc4n2[C@@]2(c4noc(=O)[nH]4)C[C@@H]2C)CC3)cc(C)c1F [Compound 125a, 3-((1S,2S)-1-(2-((S)-3-(3-(4-(dimethylphosphoryl)-3-morpholinophenyl)-2-oxo-2,3-dihydro-1H-imidazol-1-yl)-2-(4-fluoro-3,5-dimethylphenyl)-4-methyl-4,5,6,7-tetrahydro-2H-pyrazolo[4,3-c]pyridine-5-carbonyl)-5-(tetrahydro-2H-pyran-4-yl)-1H-indol-1-yl)-2-methylcyclopropyl)-1,2,4-oxadiazol-5(4H)-one]
0.1 to 0.2 nM | 0.1 to 1 nM | Cc1cc(-n2nc3c(c2-n2ccn(-c4ccc(P5(=O)CCN(C)CC5)cc4)c2=O)[C@H](C)N(C(=O)c2cc4cc(C5CCOCC5)ccc4n2[C@@]2(c4noc(=O)[nH]4)C[C@@H]2C)CC3)cc(C)c1F [Compound 126a, 3-((1S,2S)-1-(2-((S)-2-(4-fluoro-3,5-dimethylphenyl)-4-methyl-3-(3-(4-(1-methyl-4-oxido-1,4-azaphosphinan-4-yl)phenyl)-2-oxo-2,3-dihydro-1H-imidazol-1-yl)-4,5,6,7-tetrahydro-2H-pyrazolo[4,3-c]pyridine-5-carbonyl)-5-(tetrahydro-2H-pyran-4-yl)-1H-indol-1-yl)-2-methylcyclopropyl)-1,2,4-oxadiazol-5(4H)-one]
< 0.1 nM | ≤ 0.1 nM | Cc1cc(-n2nc3c(c2-n2ccn(-c4ccc(P5(=O)CCCC5)cc4)c2=O)[C@H](C)N(C(=O)c2cc4cc(C5CCOCC5)ccc4n2[C@@]2(c4noc(=O)[nH]4)C[C@@H]2C)CC3)cc(C)c1F [Compound 127a, 3-((1S,2S)-1-(2-((S)-2-(4-fluoro-3,5-dimethylphenyl)-4-methyl-3-(3-(4-(1-oxidophospholan-1-yl)phenyl)-2-oxo-2,3-dihydro-1H-imidazol-1-yl)-4,5,6,7-tetrahydro-2H-pyrazolo[4,3-c]pyridine-5-carbonyl)-5-(tetrahydro-2H-pyran-4-yl)-1H-indol-1-yl)-2-methylcyclopropyl)-1,2,4-oxadiazol-5(4H)-one]

— patent publication US20240366639A1, “HETEROCYCLIC GLP-1 AGONISTS” (GASHERBRUM BIO, INC., priority 2021, published 2024)
